{"source": "BindingDB's records for doi:10.1016/j.bmc.2012.01.022", "about": "(Florida A&M University, 2012)", "key": {"[1]": {"target": "5-hydroxytryptamine receptor 2A (Homo sapiens, UniProt P28223)", "sequence (P28223 whole entry)": "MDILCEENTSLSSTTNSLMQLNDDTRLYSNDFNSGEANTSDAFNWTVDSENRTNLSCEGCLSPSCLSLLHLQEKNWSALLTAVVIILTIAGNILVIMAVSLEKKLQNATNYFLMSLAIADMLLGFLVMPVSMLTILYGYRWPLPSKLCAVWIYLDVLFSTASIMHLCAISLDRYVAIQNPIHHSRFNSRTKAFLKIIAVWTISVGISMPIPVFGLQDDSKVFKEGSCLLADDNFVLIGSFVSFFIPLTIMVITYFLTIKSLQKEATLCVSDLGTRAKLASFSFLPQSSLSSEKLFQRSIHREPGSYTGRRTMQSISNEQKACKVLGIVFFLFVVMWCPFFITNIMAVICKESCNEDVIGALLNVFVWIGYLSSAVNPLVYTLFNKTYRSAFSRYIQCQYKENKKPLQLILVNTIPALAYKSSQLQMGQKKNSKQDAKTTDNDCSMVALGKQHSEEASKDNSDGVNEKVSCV", "test": "Binding affinity at 5-HT2A receptor by radioligand displacement assay"}, "[2]": {"target": "T1, 5-hydroxytryptamine receptor 2C (Homo sapiens, UniProt P28335)", "T1 sequence (P28335 whole entry)": "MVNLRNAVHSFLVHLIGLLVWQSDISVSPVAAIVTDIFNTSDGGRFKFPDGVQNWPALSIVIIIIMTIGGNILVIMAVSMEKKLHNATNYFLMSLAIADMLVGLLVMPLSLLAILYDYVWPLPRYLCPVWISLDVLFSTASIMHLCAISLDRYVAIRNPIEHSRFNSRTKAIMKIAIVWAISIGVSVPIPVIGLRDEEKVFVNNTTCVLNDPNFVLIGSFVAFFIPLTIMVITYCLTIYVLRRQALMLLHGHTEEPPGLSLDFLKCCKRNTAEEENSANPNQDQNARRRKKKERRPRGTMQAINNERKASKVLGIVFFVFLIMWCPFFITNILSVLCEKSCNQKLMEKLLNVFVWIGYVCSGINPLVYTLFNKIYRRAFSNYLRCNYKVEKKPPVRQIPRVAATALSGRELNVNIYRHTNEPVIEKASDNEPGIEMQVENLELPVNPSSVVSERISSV", "test": "Binding affinity at 5-HT2C receptor by radioligand displacement assay"}, "[3]": {"target": "Histamine H1 receptor (Homo sapiens, UniProt P35367)", "sequence (P35367 whole entry)": "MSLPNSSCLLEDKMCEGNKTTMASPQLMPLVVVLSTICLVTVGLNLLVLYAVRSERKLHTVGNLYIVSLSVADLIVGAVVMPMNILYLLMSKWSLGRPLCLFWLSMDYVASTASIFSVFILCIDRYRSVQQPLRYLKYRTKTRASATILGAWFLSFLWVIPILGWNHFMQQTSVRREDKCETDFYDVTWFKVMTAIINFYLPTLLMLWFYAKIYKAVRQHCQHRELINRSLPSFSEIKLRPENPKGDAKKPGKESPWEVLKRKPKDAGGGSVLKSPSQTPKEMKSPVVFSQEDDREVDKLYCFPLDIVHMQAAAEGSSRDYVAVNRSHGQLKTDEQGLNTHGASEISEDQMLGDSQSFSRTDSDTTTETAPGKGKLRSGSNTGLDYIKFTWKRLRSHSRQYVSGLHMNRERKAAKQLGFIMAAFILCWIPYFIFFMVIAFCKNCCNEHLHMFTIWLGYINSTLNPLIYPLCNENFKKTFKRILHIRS", "test": "Displacement of [3H]-Pyrilamine from human histamine H1 receptor by liquid scintillation counter"}, "[4]": {"target": "D(2) dopamine receptor (Homo sapiens, UniProt P14416)", "sequence (P14416 whole entry)": "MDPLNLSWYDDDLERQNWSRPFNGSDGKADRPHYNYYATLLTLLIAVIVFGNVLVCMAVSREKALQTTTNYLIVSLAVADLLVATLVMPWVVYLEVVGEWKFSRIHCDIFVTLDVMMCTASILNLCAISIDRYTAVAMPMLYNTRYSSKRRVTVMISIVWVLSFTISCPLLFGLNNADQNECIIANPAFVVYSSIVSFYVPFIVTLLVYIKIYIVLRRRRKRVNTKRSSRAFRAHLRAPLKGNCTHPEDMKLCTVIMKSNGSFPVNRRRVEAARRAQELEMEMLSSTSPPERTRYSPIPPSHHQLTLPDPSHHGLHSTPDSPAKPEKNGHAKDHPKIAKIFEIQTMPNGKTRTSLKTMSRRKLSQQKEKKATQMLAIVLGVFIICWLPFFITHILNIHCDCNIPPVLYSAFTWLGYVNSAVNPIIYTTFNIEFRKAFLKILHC", "test": "Displacement of [3H]-N-methylspiperone from dopamine D2 receptor expressed in human MES-23.5 cells"}}, "note": "pKi: −log10 of the molar value.", "data": [{"smiles": "OC1(c2ccc(Cl)cc2)C[C@H]2CC[C@@H](C1)N2CCCCc1nc2ccccc2s1", "note": "(some centres undefined)", "values": [{"measurement": "pKi", "setting": "[1]", "result": "< 5.00"}, {"measurement": "pKi", "setting": "[2]", "result": 5.34}, {"measurement": "pKi", "setting": "[3]", "result": 6.73}]}, {"smiles": "O=C(CCCCN1[C@@H]2CC[C@H]1CC(O)(c1ccc(Cl)cc1)C2)c1nc2ccccc2s1", "note": "(some centres undefined)", "values": [{"measurement": "pKi", "setting": "[4]", "result": 6.74}]}]}
